Test results from patent US8148572B2, “Compounds” (AstraZeneca AB, priority 2005, dated 2012).

Each compound was assayed against T1, rhCRTh2 (Homo sapiens, UniProt Q9Y5Y4) (assay: Ligand Binding Assay ([3H]PGD2 displacement, SPA beads coated with HEK cell membranes)). Settings: [3H]PGD2 binding to HEK cell membranes containing CRTh2; read-out: pIC50 value (converted).
T1 construct: expressed in transfected cells; host or cells: HEK cells (membrane preparation)
T1 sequence (Q9Y5Y4 1-395): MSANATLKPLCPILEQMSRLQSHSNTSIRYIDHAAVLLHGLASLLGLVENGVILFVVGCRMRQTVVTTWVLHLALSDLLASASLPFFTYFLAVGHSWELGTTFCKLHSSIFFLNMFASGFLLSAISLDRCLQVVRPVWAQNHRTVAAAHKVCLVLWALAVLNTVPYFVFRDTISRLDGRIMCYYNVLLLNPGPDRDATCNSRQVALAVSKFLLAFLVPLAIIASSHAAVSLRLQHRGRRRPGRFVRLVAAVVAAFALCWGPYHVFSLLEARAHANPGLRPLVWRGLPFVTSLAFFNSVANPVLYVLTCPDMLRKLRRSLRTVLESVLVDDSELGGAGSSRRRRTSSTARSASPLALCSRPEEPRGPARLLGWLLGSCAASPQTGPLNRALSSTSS
Procedure: [^3H]PGD2 was purchased from Perkin Elmer Life Sciences with a specific activity of 100-210 Ci/mmol. All other chemicals were of analytical grade.
HEK cells expressing rhCRTh2/Gα16 were routinely maintained in DMEM containing 10% Foetal Bovine Serum (HyClone), 1 mg/ml geneticin, 2 mM L-glutamine and 1% non-essential amino acids. For the preparation of membranes, the adherent transfected HEKcells were grown to confluence in two layer tissue culture factories (Fisher, catalogue number TKT-170-070E). Maximal levels of receptor expression were induced by addition of […] sodium butyrate for the last 18 hours of culture. The adherent cells were washed once with phosphate buffered saline (PBS, 50 ml per cell factory) and detached by the addition of 50 ml per cell factory of ice-cold membrane homogenisation buffer [20 mM HEPES (pH 7.4), 0.1 mM dithiothreitol, 1 mM EDTA, 0.1 mM phenyl methyl sulphonyl fluoride and 100 µg/ml bacitracin]. Cells were pelleted by centrifugation at 220×g for 10 minutes at 4° C., re-suspended in half the original volume of fresh membrane homogenisation buffer and disrupted using a Polytron homogeniser for 2×20 second bursts keeping the tube in ice at all times. […] The final pellet was re-suspended in 4 ml of membrane homogenisation buffer per cell factory used and the protein content determined. […]
All assays were performed in Corning clear bottomed, white 96-well NBS plates (Fisher). […] (The optimum coating concentrations were determined for each batch of membranes) The beads were pelleted by centrifugation (800×g for 7 minutes at 4° C.), washed once with assay buffer (50 mM HEPES pH 7.4 containing 5 mM magnesium chloride) and finally re-suspended in assay buffer at a bead concentration of 10 mg/ml. […]
Compounds and DK-PGD2 were dissolved in DMSO and diluted in the same solvent to 100× the required final concentration. […] The assay plate was incubated at room temperature for 2 hours and counted on a Wallac Microbeta liquid scintillation counter (1 minute per well).

IC50 [nM] | Structure (SMILES)
7.94 | CN(C)S(=O)(=O)c1ccc(Oc2cc(CC(=O)O)ccc2Cl)c(Cl)c1 [Example 7, (4-chloro-3-{2-chloro-4-[(dimethylamino)sulfonyl]phenoxy}phenyl)acetic acid]
14.1 | CS(=O)(=O)c1ccc(Oc2cc(CC(=O)O)ccc2Cl)c(F)c1 [Example 9, {4-chloro-3-[2-fluoro-4-(methylsulfonyl)phenoxy]phenyl}acetic acid]
8.91 | CS(=O)(=O)c1ccc(Oc2cc(CC(=O)O)ccc2Cl)c(C#N)c1 [Example 11, {4-chloro-3-[2-cyano-4-(methylsulfonyl)phenoxy]phenyl}acetic acid]
